Measured values from patent US9422293B2 (priority 2006, dated 2016).
Structures can show the parent of a compound that is named as a salt.

Target: T1, rat TRPV1 (Rattus norvegicus (Rat), UniProt O35433)
Test: cell-based
Conditions: Rat IC50 (μM)

T1 sequence (O35433 whole entry): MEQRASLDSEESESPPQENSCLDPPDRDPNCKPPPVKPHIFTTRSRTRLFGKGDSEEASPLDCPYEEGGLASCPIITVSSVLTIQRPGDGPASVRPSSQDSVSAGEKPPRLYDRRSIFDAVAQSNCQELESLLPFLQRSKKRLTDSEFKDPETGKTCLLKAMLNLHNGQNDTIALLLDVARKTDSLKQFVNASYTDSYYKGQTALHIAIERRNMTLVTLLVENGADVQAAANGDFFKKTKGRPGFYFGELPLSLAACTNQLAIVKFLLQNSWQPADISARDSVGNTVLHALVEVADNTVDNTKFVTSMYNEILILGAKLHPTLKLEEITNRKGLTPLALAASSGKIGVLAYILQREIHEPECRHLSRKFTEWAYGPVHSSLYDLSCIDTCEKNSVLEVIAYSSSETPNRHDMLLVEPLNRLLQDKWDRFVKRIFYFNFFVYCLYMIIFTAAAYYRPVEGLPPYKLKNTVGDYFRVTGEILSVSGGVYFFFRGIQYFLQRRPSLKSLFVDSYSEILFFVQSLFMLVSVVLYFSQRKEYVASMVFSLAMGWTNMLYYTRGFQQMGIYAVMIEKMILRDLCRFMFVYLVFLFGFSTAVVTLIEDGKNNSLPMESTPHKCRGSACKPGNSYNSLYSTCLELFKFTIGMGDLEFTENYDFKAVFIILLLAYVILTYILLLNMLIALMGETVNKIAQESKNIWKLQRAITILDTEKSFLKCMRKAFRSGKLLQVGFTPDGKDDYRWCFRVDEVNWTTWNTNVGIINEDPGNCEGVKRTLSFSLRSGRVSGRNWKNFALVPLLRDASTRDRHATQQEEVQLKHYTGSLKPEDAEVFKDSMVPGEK

SMILES | IC50 [µM]
COC(=O)c1cnc(N2CCc3nc(S(C)(=O)=O)nc(Nc4ccc(C(F)(F)F)cc4)c3CC2)c(Cl)c1 [Example 211, Methyl 5-chloro-6-[2-(methylsulfonyl)-4-{[4-(trifluoromethyl)phenyl]amino}-5,6,8,9-tetrahydro-7H-pyrimido[4,5-d]azepin-7-yl]pyridine-3-carboxylate] | 11.4
CC(C)c1nc2c(c(Nc3ccc(Br)cc3)n1)CCN(c1ncccc1C(F)(F)F)CC2 [Example 46, (4-Bromo-phenyl)-[2-isopropyl-7-(3-trifluoromethyl-pyridin-2-yl)-6,7,8,9-tetrahydro-5H-pyrimido[4,5-d]azepin-4-yl]-amine] | 0.38
FC(F)(F)c1ccc(Nc2nc(NC3CCOC3)nc3c2CCN(c2ncccc2C(F)(F)F)CC3)cc1 (stereo not drawn) [Example 265, N^2-(Tetrahydro-furan-3-yl)-N^4-(4-trifluoromethyl-phenyl)-7-(3-trifluoromethyl-pyridin-2-yl)-6,7,8,9-tetrahydro-5H-pyrimido[4,5-d]azepine-2,4-diamine trifluoroacetic acid salt] | 0.39
CC(C)(C)c1ccc(Nc2nc(C(C)(C)C)nc3c2CCN(c2ncccc2C(F)(F)F)CC3)cc1 [Example 138, 2-(1,1-Dimethylethyl)-N-[4-(1,1-dimethylethyl)phenyl]-7-[3-(trifluoromethyl)pyridin-2-yl]-6,7,8,9-tetrahydro-5H-pyrimido[4,5-d]azepin-4-amine] | 0.03
Cc1nc(-c2nc3c(c(Nc4ccc(C(F)(F)F)cc4)n2)CCN(c2ncccc2C(F)(F)F)CC3)cs1 [Example 153, 2-(2-Methyl-1,3-thiazol-4-yl)-N-[4-(trifluoromethyl)phenyl]-7-[3-(trifluoromethyl)pyridin-2-yl]-6,7,8,9-tetrahydro-5H-pyrimido[4,5-d]azepin-4-amine trifluoroacetic acid salt] | 0.14

Target: T1, rat TRPV1
Test: not given
Conditions: read-out: Rat IC50

SMILES | IC50 [nM]
CC(C)N(C)c1nc2c(c(Nc3ccc(C(F)(F)F)cc3)n1)CCN(c1ncccc1C(F)(F)F)CC2 [Example 272, N^2-Methyl-N^2-(1-methylethyl)-N^4-[4-(trifluoromethyl)phenyl]-7-[3-(trifluoromethyl)pyridin-2-yl]-6,7,8,9-tetrahydro-5H-pyrimido[4,5-d]azepine-2,4-diamine] | 200
CC(C)c1nc2c(c(Nc3cnc(C(F)(F)F)cn3)n1)CCN(c1ncccc1C(F)(F)F)CC2 [Example 191, [2-Isopropyl-7-(3-trifluoromethyl-pyridin-2-yl)-6,7,8,9-tetrahydro-5H-pyrimido[4,5-d]azepin-4-yl]-(5-trifluoromethyl-pyrazin-2-yl)-amine] | 260
FC(F)(F)c1ccc(Nc2nc(-c3cccs3)nc3c2CCN(c2ncccc2C(F)(F)F)CC3)cc1 [Example 149, 2-(2-Thienyl)-N-[4-(trifluoromethyl)phenyl]-7-[3-(trifluoromethyl)pyridin-2-yl]-6,7,8,9-tetrahydro-5H-pyrimido[4,5-d]azepin-4-amine] | 150
CC(C)c1nc2c(c(NCCc3ccc(Cl)c(Cl)c3)n1)CCN(c1ncccc1C(F)(F)F)CC2 [Example 108, [2-(3,4-Dichloro-phenyl)-ethyl]-[2-isopropyl-7-(3-trifluoromethyl-pyridin-2-yl)-6,7,8,9-tetrahydro-5H-pyrimido[4,5-d]azepin-4-yl]-amine] | 940
CC(=O)c1ccc(Nc2nc(C(C)C)nc3c2CCN(c2ncccc2C(F)(F)F)CC3)cc1 [Example 96, 1-{4-[2-Isopropyl-7-(3-trifluoromethyl-pyridin-2-yl)-6,7,8,9-tetrahydro-5H-pyrimido[4,5-d]azepin-4-ylamino]-phenyl}-ethanone] | 340
Cc1cc(C(F)(F)F)ccc1Nc1nc(SCc2ccccc2)nc2c1CCN(c1ncccc1C(F)(F)F)CC2 [Example 364, N-[2-Methyl-4-(trifluoromethyl)phenyl]-2-[(phenylmethyl)sulfanyl]-7-[3-(trifluoromethyl)pyridin-2-yl]-6,7,8,9-tetrahydro-5H-pyrimido[4,5-d]azepin-4-amine] | 1180
FC(F)(F)c1ccc(Nc2nc(OC3CCCCC3)nc3c2CCN(c2ncccc2C(F)(F)F)CC3)cc1 [Example 338, 2-(Cyclohexyloxy)-N-[4-(trifluoromethyl)phenyl]-7-[3-(trifluoromethyl)pyridin-2-yl]-6,7,8,9-tetrahydro-5H-pyrimido[4,5-d]azepin-4-amine] | 400
FC(F)(F)c1ccc(Nc2nc(-c3ccccn3)nc3c2CCN(c2ncccc2C(F)(F)F)CC3)cc1Cl [Example 173, N-[3-Chloro-4-(trifluoromethyl)phenyl]-2-pyridin-2-yl-7-[3-(trifluoromethyl)pyridin-2-yl]-6,7,8,9-tetrahydro-5H-pyrimido[4,5-d]azepin-4-amine trifluoroacetic acid salt] | 210
COC(=O)c1ccc(Nc2nc(N3CCCCC3)nc3c2CCN(c2ncccc2C(F)(F)F)CC3)cc1F [Example 385, 2-Fluoro-4-[2-piperidin-1-yl-7-(3-trifluoromethyl-pyridin-2-yl)-6,7,8,9-tetrahydro-5H-pyrimido[4,5-d]azepin-4-ylamino]-benzoic acid methyl ester] | 820
OCC1CCCCN1c1nc2c(c(Nc3ccc(C(F)(F)F)cc3)n1)CCN(c1ncccc1C(F)(F)F)CC2 (stereo not drawn) [Example 259, [1-(4-{[4-(Trifluoromethyl)phenyl]amino}-7-[3-(trifluoromethyl)pyridin-2-yl]-6,7,8,9-tetrahydro-5H-pyrimido[4,5-d]azepin-2-yl)piperidin-2-yl]methanol] | 90
Cc1cc(C(F)(F)F)ccc1Nc1nc(OC2CCCCC2)nc2c1CCN(c1ncccc1C(F)(F)F)CC2 [Example 326, 2-(Cyclohexyloxy)-N-[2-methyl-4-(trifluoromethyl)phenyl]-7-[3-(trifluoromethyl)pyridin-2-yl]-6,7,8,9-tetrahydro-5H-pyrimido[4,5-d]azepin-4-amine] | 600
O=S(=O)(NC1CC1)c1cccnc1N1CCc2nc(N3CCCCC3)nc(Nc3ccc(C(F)(F)F)cc3)c2CC1 [Example 299, N-Cyclopropyl-2-(2-piperidin-1-yl-4-{[4-(trifluoromethyl)phenyl]amino}-5,6,8,9-tetrahydro-7H-pyrimido[4,5-d]azepin-7-yl)pyridine-3-sulfonamide] | 3000
CC(C)c1nc2c(c(Nc3ccc(C(F)(F)F)cc3)n1)CCN(c1ncccc1NS(C)(=O)=O)CC2 [Example 281, N-{2-[2-(1-Methylethyl)-4-{[4-(trifluoromethyl)phenyl]amino}-5,6,8,9-tetrahydro-7H-pyrimido[4,5-d]azepin-7-yl]pyridin-3-yl}methanesulfonamide] | 2620
CC(C)c1nc2c(c(Nc3ccc(C#N)cc3)n1)CCN(c1ncccc1C(F)(F)F)CC2 [Example 97, 4-[2-Isopropyl-7-(3-trifluoromethyl-pyridin-2-yl)-6,7,8,9-tetrahydro-5H-pyrimido[4,5-d]azepin-4-ylamino]-benzonitrile] | 490
COc1nc2c(c(Nc3ccc(C(F)(F)F)cc3)n1)CCN(c1ncccc1C(F)(F)F)CC2 [Example 62, [2-Methoxy-7-(3-trifluoromethyl-pyridin-2-yl)-6,7,8,9-tetrahydro-5H-pyrimido[4,5-d]azepin-4-yl]-(4-trifluoromethyl-phenyl)-amine] | 53

Same assay, conditions: read-out: Rat IC50; hydrochloride salt

SMILES | IC50 [nM]
CC(C)c1nc2c(c(Nc3ccc(C(F)(F)F)cn3)n1)CCN(c1ncccc1C(F)(F)F)CC2 [Example 20A, [2-Isopropyl-7-(3-trifluoromethyl-pyridin-2-yl)-6,7,8,9-tetrahydro-5H-pyrimido[4,5-d]azepin-4-yl]-(5-trifluoromethyl-pyridin-2-yl)-amine hydrochloride salt] | 250
